Among the data in patent US20070004660A1, “Synergistic Modulation of Flt3 Kinase Using Alkylquinolines and Alkylquinazolines” (priority 2005, published 2007) are IC50 values, retold here.

The assay has as its target T1, isolated kinase domain of the human FLT3 receptor (a.a. 571-993) (Homo sapiens, UniProt P36888).
T1 construct: human FLT3 receptor (a.a. 571-993)
T1 sequence (P36888 571-993): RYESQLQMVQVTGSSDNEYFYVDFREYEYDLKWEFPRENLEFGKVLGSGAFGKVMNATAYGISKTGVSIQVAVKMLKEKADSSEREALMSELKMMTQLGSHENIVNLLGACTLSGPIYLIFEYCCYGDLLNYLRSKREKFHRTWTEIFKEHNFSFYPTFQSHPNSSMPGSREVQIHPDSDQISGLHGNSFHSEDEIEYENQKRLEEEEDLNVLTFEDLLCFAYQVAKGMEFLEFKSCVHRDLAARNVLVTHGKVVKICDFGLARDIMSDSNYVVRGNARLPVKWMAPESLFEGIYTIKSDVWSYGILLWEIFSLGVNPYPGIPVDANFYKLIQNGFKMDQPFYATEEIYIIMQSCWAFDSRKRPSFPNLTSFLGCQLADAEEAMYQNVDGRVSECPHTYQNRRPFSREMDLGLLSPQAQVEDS
In words: FLT3 fluorescence polarization kinase assay. The assay is classed as biochemical. Conditions: 150 uM ATP; uncertainty ±10%. (Fluorescence polarisation rises when a labelled molecule tumbles more slowly, as on binding a larger partner.)

Usually IC50 stands for the concentration that gives 50% inhibition. Compound `O=C1CCCN1CCOc1cc2ncnc(C3CCN(C(=O)Nc4ccc(N5CCCC5)cc4)CC3)c2cc1F` [Compound 206, 4-{6-Fluoro-7-[2-(2-oxo-pyrrolidin-1-yl)-ethoxy]-quinazolin-4-yl}-piperidine-1-carboxylic acid (4-pyrrolidin-1-yl-phenyl)-amide] registered an IC50 of 28 nM.
The compound `COc1cc2c(C3CCN(C(=O)Nc4ccc(N5CCOCC5)cc4)CC3)ncnc2cc1OCCCN1CCN(C)CC1` [Compound 207, 4-{6-Methoxy-7-[3-(4-methyl-piperazin-1-yl)-propoxy]-quinazolin-4-yl}-piperidine-1-carboxylic acid (4-morpholin-4-yl-phenyl)-amide] displayed an IC50 of 29 nM.
For the compound `COc1cc2c(C3CCN(C(=O)Nc4ccc(N5CCCC5)cc4)CC3)ncnc2cc1OCCN1CCCC1=O` [Compound 209, 4-{6-Methoxy-7-[2-(2-oxo-pyrrolidin-1-yl)-ethoxy]-quinazolin-4-yl}-piperidine-1-carboxylic acid (4-pyrrolidin-1-yl-phenyl)-amide], the IC50 worked out at 17 nM.
As for `O=C(Nc1ccc(N2CCCC2)cc1)N1CCC(c2ncnc3cc(N4CCOCC4)c(F)cc23)CC1` [Compound 210, 4-(6-Fluoro-7-morpholin-4-yl-quinazolin-4-yl)-piperidine-1-carboxylic acid (4-pyrrolidin-1-yl-phenyl)-amide], the figure is 21 nM; as for `COc1cc2c(C3CCN(C(=O)Nc4ccc(N5CCCC5)cc4)CC3)ncnc2cc1N1CCOCC1` [Compound 211, 4-(6-Methoxy-7-morpholin-4-yl-quinazolin-4-yl)-piperidine-1-carboxylic acid (4-pyrrolidin-1-yl-phenyl)-amide], 8 nM.
As for `COc1cc2c(C3CCN(C(=O)Nc4ccc(N5CCOCC5)cc4)CC3)ncnc2cc1N1CCOCC1` [Compound 212, 4-(6-Methoxy-7-morpholin-4-yl-quinazolin-4-yl)-piperidine-1-carboxylic acid (4-morpholin-4-yl-phenyl)-amide], the figure is 239 nM.
For the compound `COc1cc2ncnc(C3CCN(C(=O)Nc4ccc(I)cc4)CC3)c2cc1OC` [Example 2, 4-(6,7-Dimethoxy-quinazolin-4-yl)-piperidine-1-carboxylic acid (4-iodo-phenyl)-amide], it took 210 nM to reach half-maximal inhibition (IC50).
For the compound `COc1cc2ncnc(C3CCN(C(=O)Nc4ccc(-n5ccnc5)cc4)CC3)c2cc1OC` [Example 3, 4-(6,7-Dimethoxy-quinazolin-4-yl)-piperidine-1-carboxylic acid (4-imidazol-1-yl-phenyl)-amide], it took 3900 nM to reach half-maximal inhibition (IC50).
Take `COc1cc2ncnc(C3CCN(C(=O)Nc4ccc(NC(C)=O)cc4)CC3)c2cc1OC` [Example 25, 4-(6,7-Dimethoxy-quinazolin-4-yl)-piperidine-1-carboxylic acid (4-acetylamino-phenyl)-amide]: the IC50 is 6100 nM.
In turn, `COc1cc2ncnc(C3CCN(C(=O)Nc4ccc(N(C)C)cc4)CC3)c2cc1OC` [Example 26, 4-(6,7-Dimethoxy-quinazolin-4-yl)-piperidine-1-carboxylic acid (4-dimethylamino-phenyl)-amide] registered an IC50 of 200 nM.
Under `COc1cc2ncnc(C3CCN(C(=O)Cc4ccc(C(C)C)cc4)CC3)c2cc1OC` [Example 28, 1-[4-(6,7-Dimethoxy-quinazolin-4-yl)-piperidin-1-yl]-2-(4-isopropyl-phenyl)-ethanone] stands 8 nM; under `CC(C)Oc1ccc(NC(=O)N2CCC(c3ncnc4cc(Cl)ccc34)CC2)cc1` [Example 29, 4-(7-Chloro-quinazolin-4-yl)-piperidine-1-carboxylic acid (4-isopropoxy-phenyl)-amide], 150 nM; under `CC(C)c1ccc(NC(=O)N2CCC(c3ncnc4cc(Cl)ccc34)CC2)cc1` [Example 30, 4-(7-Chloro-quinazolin-4-yl)-piperidine-1-carboxylic acid (4-isopropyl-phenyl)-amide], 35 nM.
Compound `COc1ccc2c(C3CCN(C(=O)Nc4ccc(OC(C)C)cc4)CC3)ncnc2c1` [Example 31, 4-(7-Methoxy-quinazolin-4-yl)-piperidine-1-carboxylic acid (4-isopropoxy-phenyl)-amide] displayed an IC50 of 21 nM.
Regarding `COc1ccc2c(C3CCN(C(=O)Nc4ccc(C(C)C)cc4)CC3)ncnc2c1` [Example 32, 4-(7-Methoxy-quinazolin-4-yl)-piperidine-1-carboxylic acid (4-isopropyl-phenyl)-amide], inhibition was half-maximal at 11 nM (IC50).
Under `CC(C)Oc1ccc(NC(=O)N2CCC(c3ncnc4cc(OCCCN5CCCCC5)ccc34)CC2)cc1` [Example 33, 4-(7-(3-Piperidin-1-yl-propoxy)-quinazolin-4-yl)-piperidine-1-carboxylic acid (4-isopropoxy-phenyl)-amide] stands 11 nM.
`CC(C)Oc1ccc(NC(=O)N2CCC(c3ncnc4cc(OCCN5CCCCC5)ccc34)CC2)cc1` [Example 34, 4-(7-(2-Piperindin-1-yl-ethoxy)-quinazolin-4-yl)-piperidine-1-carboxylic acid (4-isopropoxy-phenyl)-amide] yielded an IC50 of 49 nM.
As for `CCN(CC)CCOc1ccc2c(C3CCN(C(=O)Nc4ccc(OC(C)C)cc4)CC3)ncnc2c1` [Example 35, 4-[7-(2-Diethylamino-ethoxy)-quinazolin-4-yl)-piperidine-1-carboxylic acid (4-isopropoxy-phenyl)-amide], the figure is 47 nM.
`CCN(CC)CCCOc1ccc2c(C3CCN(C(=O)Nc4ccc(OC(C)C)cc4)CC3)ncnc2c1` [Example 36, 4-[7-(3-Diethylamino-propoxy)-quinazolin-4-yl)-piperidine-1-carboxylic acid (4-isopropoxy-phenyl)-amide] displayed an IC50 of 18 nM.
In the case of `CC(C)Oc1ccc(NC(=O)N2CCC(c3ncnc4cc(OCCN5CCOCC5)ccc34)CC2)cc1` [Example 37], the midpoint of inhibition, the IC50, lay at 7 nM.
Under `CC(C)Oc1ccc(NC(=O)N2CCC(c3ncnc4cc(OCCCN5CCOCC5)ccc34)CC2)cc1` [Example 38] stands 6 nM; under `CC(C)Oc1ccc(NC(=O)N2CCC(c3ncnc4cc(OCCCN5CCN(C)CC5)ccc34)CC2)cc1` [Example 39], 15 nM; under `COCCOc1ccc(NC(=O)N2CCC(c3ncnc4cc(OC)c(OC)cc34)CC2)cc1` [Example 40, 4-(6,7-Dimethoxy-quinazolin-4-yl)-piperidine-1-carboxylic acid [4-(2-methoxy-ethoxy)-phenyl]-amide], 910 nM.
